Series [1] is described as follows: Cytotoxicity against human FF2441 cells assessed as reduction in cell viability at 0.2 to 100 uM measured after 72 hrs by MTS assay. Conditions: ff2441, 72 h, dose 0.2-100 µM. It counts as cell-based.
Series [2] deals with UACC-903. In words: Antiproliferative activity against human UACC-903 cells assessed as reduction in cell viability at 0.5 to 200 uM measured after 72 hrs by MTS assay. Conditions: dose 0.5-200 µM. It is filed as functional, cell-based. For orientation: Formazan colour is commonly taken as a measure of viable cells.
The test system of series [3] is UACC-903. The series can be described thus: Antiproliferative activity against human UACC-903 cells assessed as reduction in cell viability measured after 72 hrs by MTS assay. It counts as functional, cell-based. The settings on record: for IC50: UACC-903, 72 h.
Series [4] deals with UACC-903. In words: Antiproliferative activity against human UACC-903 cells assessed as reduction in cell viability at 0.5 to 200 uM by MTS assay. It counts as functional, cell-based. Conditions: dose 0.5-200 µM, TDE = time-dependent effect.
Series [5] has as its system Ehrlich. The series can be described thus: Antitumor activity against mouse EAT cells implanted in ip dosed Swiss albino mouse assessed as increase in mouse survival at 100 mg/kg, ip administered on day 7, 9 and 11 post implantation and measured after 35 days relative to control. It counts as functional. The settings on record: time 35 day.
For series [6], the system named is Ehrlich. In words: Antitumor activity against mouse EAT cells implanted in ip dosed Swiss albino mouse assessed as suppression of peritoneal angiogenesis at […] administered on day 7, 9 and 11 post implantation and measured on day 12 by Hematoxylin and eosin staining based assay. It is filed as functional, organism-based. The settings on record: time 3.0 day.

Series [7] deals with Ehrlich. The series can be described thus: Antitumor activity against mouse EAT cells implanted in ip dosed Swiss albino mouse assessed as decrease in ascitic fluid administered on day 7, 9 and 11 post implantation and measured on day 12. It counts as functional, organism-based. The settings on record: dose 100.0 mg/kg, time 3.0 day.
The subject of series [8] is Ehrlich. In words: Antitumor activity against mouse EAT cells implanted in Swiss albino mouse assessed as tumor suppression at 100 mg/kg, ip administered on day 7, 9 and 11 post implantation and measured on day 12 relative to control. It counts as functional. Conditions: 72 h, time 3 day.
The test system of series [9] is Chorioallantoic membrane. The series can be described thus: Antiangiogenic activity in chicken fertilized egg chorioallantoic membrane assessed as inhibition of VEGF165-induced vascularization incubated for 2 days by digital camera photography analysis. It is filed as functional. The settings on record: Gallus gallus, Embryo, time 2.0 day.
The test system of series [10] is Ehrlich. In words: Antitumor activity against mouse EAT cells implanted in ip dosed Swiss albino mouse assessed as induction of apoptosis causing apoptotic body formation administered on day 7, 9 and 11 post implantation and measured on day 12 by Giemsa staining based light microscopy. It counts as functional, organism-based. The settings on record: dose 100.0 mg/kg, time 3.0 day.

The test system of series [11] is Chorioallantoic membrane. In words: Antiangiogenic activity in chicken fertilized egg chorioallantoic membrane assessed as inhibition of expression of VEGF-like factors. It counts as functional. Conditions: Gallus gallus, Embryo.
Series [12] concerns Chorioallantoic membrane. The series can be described thus: Antiangiogenic activity in chicken fertilized egg chorioallantoic membrane assessed as inhibition of secretion of VEGF-like factors. It counts as functional. Conditions: Gallus gallus, Embryo.
Series [13] concerns Ehrlich. In words: Antitumor activity against mouse EAT cells implanted in ip dosed Swiss albino mouse assessed as tumor regression administered on day 7, 9 and 11 post implantation and measured on day 12. It is filed as functional, organism-based. Conditions: time 3.0 day.
Series [14] relates to Ehrlich. The series can be described thus: Antitumor activity against mouse EAT cells implanted in ip dosed Swiss albino mouse assessed as induction of apoptosis causing membrane blebbing administered on day 7, 9 and 11 post implantation and measured on day 12 by Giemsa staining based light microscopy. The settings on record: dose 100.0 mg/kg, time 3.0 day. It is filed as functional, organism-based.

Series [15] concerns Ehrlich. The series can be described thus: Antitumor activity against mouse EAT cells implanted in ip dosed Swiss albino mouse assessed as induction of apoptosis causing plasma membrane degradation administered on day 7, 9 and 11 post implantation and measured on day 12 by Giemsa staining based light microscopy. It counts as functional, organism-based. The settings on record: dose 100.0 mg/kg, time 3.0 day.

The test system of series [16] is Ehrlich. In words: Antitumor activity against mouse EAT cells implanted in ip dosed Swiss albino mouse assessed as decrease in ascitic cell viability administered on day 7, 9 and 11 post implantation and measured on day 12 by tryphan blue assay. It is filed as functional, organism-based. The settings on record: dose 100.0 mg/kg, time 3.0 day.
Series [17] can be described thus: Toxicity in Swiss albino mouse implanted with mouse EAT cells assessed as decrease in body weight at 100 mg/kg, ip administered on day 7, 9 and 11 post implantation and measured on day 12. Conditions: in vivo, 72 h, time 3 day. It is filed as organism-based.
In series [18] the test system is Ehrlich. In words: Antitumor activity against mouse EAT cells implanted in ip dosed Swiss albino mouse assessed as induction of apoptosis causing shrinkage of cells administered on day 7, 9 and 11 post implantation and measured on day 12 by Giemsa staining based light microscopy. It is filed as functional, organism-based. The settings on record: dose 100.0 mg/kg, time 3.0 day.

Structures are written as SMILES. Calls of active or inactive are those of the source. No cut-off for these calls is given here.

As usually defined, the IC50 is the concentration that inhibits the measured activity by half. As a reminder, the inhibition in vivo is how much of the control response was suppressed.

With `Cc1cc(=O)oc2cc(OCC3CC(c4cccc(F)c4)=NO3)ccc12` (configuration not stated), in series [1], the Activity entry is given as “Non-Toxic”. Further, the result in [2] was inactive.

In the case of `Cc1cc(=O)oc2cc(OCC3CC(c4ccc(Br)cc4)=NO3)ccc12` (configuration not stated), the Activity entry in [1] was “Non-Toxic”. Besides, the result in [2] was inactive.

`Cc1cc(=O)oc2cc(OCC3CC(c4ccccc4Cl)=NO3)ccc12` (configuration not stated): in series [3], the Activity result was “Dose-dependent effect” and the IC50 stood at 9.2 µM. Also, the Activity entry in [4] is “Tde”.

Take `Cc1cc(=O)oc2cc(OCC3CC(c4ccc(Cl)cc4)=NO3)ccc12` (configuration not stated): the Activity entry in [1] is given as “Non-Toxic”. In addition, in [2], the result was inactive.

As for `COc1ccc(C2=NOC(COc3ccc4c(C)cc(=O)oc4c3)C2)cc1OC` (configuration not stated), the “fold change (FC)” value in series [5] is given as 2. The result in series [6], in [7], in [9], in series [10], in series [11] and in series [12] was Active. Further, the outcome in series [14], in series [15], in series [16] and in series [18] was Active. In addition, the Activity result is “Dose-dependent effect” in series [3], “Dose-dependent effect” in series [13], “Toxic” in series [17] and “Tde” in series [4]. Further, the half-inhibitory concentration (IC50) in series [3] was determined as 10.5 µM. For the same compound, in series [8], the inhibition in vivo at 100 mg/kg was determined as 85%.

`Cc1cc(=O)oc2cc(OCC3CC(c4ccc5ccccc5c4)=NO3)ccc12` (configuration not stated): the Activity result in series [1] is on record as “Non-Toxic”. In series [2], the outcome was inactive.

Turning to `Cc1cc(=O)oc2cc(OCC3CC(c4ccc(C(F)(F)F)cc4)=NO3)ccc12` (configuration not stated), in series [1], the Activity result is “Non-Toxic”. Also, in series [2], the outcome was inactive.

Take `COc1cc(C2=NOC(COc3ccc4c(C)cc(=O)oc4c3)C2)cc(OC)c1OC` (configuration not stated): the Activity entry in series [1] is given as “Non-Toxic”. The outcome in [2] was inactive.

For `Cc1cc(=O)oc2cc(OCC3CC(c4ccc(F)cc4)=NO3)ccc12` (configuration not stated), the Activity result in series [1] is “Non-Toxic”. For the same compound, the outcome in series [2] was inactive.

In the case of `Cc1cc(=O)oc2cc(OCC3CC(c4c(F)cccc4Cl)=NO3)ccc12` (configuration not stated), in series [3], the Activity result was “Dose-dependent effect” and the IC50 was 4.5 µM. Besides, the Activity result in series [4] was “Tde”.

In the case of `COc1ccc(C2=NOC(COc3ccc4c(C)cc(=O)oc4c3)C2)cc1` (configuration not stated), the values for the Activity entry in [3] and in series [4] were “Dose-dependent effect” and “Tde”, respectively. The IC50 in series [3] was determined as 8.8 µM.

Turning to `COc1cccc(C2=NOC(COc3ccc4c(C)cc(=O)oc4c3)C2)c1` (configuration not stated), in [1], the Activity entry is on record as “Non-Toxic”. Besides, in [2], the result was inactive.

(Values after ChEMBL document CHEMBL4673220, “Synthesis of new coumarin tethered isoxazolines as potential anticancer agents” (Bioorg Med Chem Lett, 2018).)
